In patent publication US9938322B2, “β-hairpin peptidomimetics” (priority 2013, dated 2018):
*1 amine or outer side, *2 acyl side, *3 side chain or, on linkers, in order; H or OH if unused. Where a SMILES comes first, the peptide text is derived from it. Side-chain parts run from the residue outwards. [ ]: non-standard residue; d: D form. The star is where a group is joined. Ala(4-thiazolyl) = N[C@@H](Cc1cscn1)C(=O)O; Cha = N[C@@H](CC1CCCCC1)C(=O)O; NH(3-picolyl) = c1cncc(CN*)c1; Agp = N=C(N)NC[C@H](N)C(=O)O; Chg = N[C@H](C(=O)O)C1CCCCC1; Tle = CC(C)(C)[C@H](N)C(=O)O; dDab = NCC[C@@H](N)C(=O)O; hSer = N[C@@H](CCO)C(=O)O; Orn = NCCC[C@H](N)C(=O)O; dDap = NC[C@@H](N)C(=O)O; Dab = NCC[C@H](N)C(=O)O; Dap = NC[C@H](N)C(=O)O; CO = O=C([*:1])[*:2]; X3 = O=C(C(O)CO)*; NHiPr = CC(C)N*

test system: human red blood cells (hRBC); test: Hemolysis of human red blood cells; type: cell-based; conditions: red cells of human, 1 h, 100
Method: Lyophilized peptides were weighed on a Microbalance (Mettler MT5) and dissolved in sterile water to a final concentration of 1 mg/ml. Stock solutions were kept at +4° C., light protected.
The peptides were tested for their hemolytic activity against human red blood cells (hRBC). Fresh hRBC were washed three times with phosphate buffered saline (PBS) and centrifuged for 10 min at 2000×g. Compounds (100 μg/ml) were incubated with 20% hRBC (v/v) for 1 h at 37° C. and shaking at 300 rpm. The final erythrocyte concentration was approximately 0.9×10^9 cells/ml. A value of 0% and 100% cell lyses, respectively, was determined by incubation of hRBC in the presence of PBS containing 0.001% acetic acid and 2.5% Triton X-100 in H2O, respectively. The samples were centrifuged, the supernatants were 8-fold diluted in PBS buffer and the optical densities (OD) were measured at 540 nm. The 100% lyses value (OD540H2O) gave an OD540 of approximately 0.5-1.0.
Percent hemolysis was calculated as follows: (OD540peptide/OD540H2O)×100%.

Row | Structure (SMILES) | Hemolysis at 100 μg/ml [%]
1 | C[C@@H]1NC(=O)[C@H](C(C)(C)C)NC(=O)[C@H](CCN)NC(=O)[C@H](Cc2c[nH]c3ccccc23)NC(=O)[C@H](CCN)NC(=O)[C@@H](CCN)NC(=O)[C@H](CCCN)NC(=O)[C@H](CCN)NC(=O)[C@H](CC2CCCCC2)NC(=O)[C@H](CNC(=O)C(O)CO)NC(=O)[C@H](Cc2c[nH]c3ccccc23)NC(=O)[C@@H]2CCCN2C(=O)[C@H]2CCCN2C(=O)[C@H](CO)NC1=O (some centres unmarked) [compound 13] (cyclo(W[Dap](X3)[Cha][Dab][Orn][dDab][Dab]W[Dab][Tle]AS[dP]P)) | 2
2 | C[C@@H]1NC(=O)[C@H](C(C)(C)C)NC(=O)[C@H](CCN)NC(=O)[C@H](Cc2c[nH]c3ccccc23)NC(=O)[C@H](CCN)NC(=O)[C@@H](CCN)NC(=O)[C@H](CCCN)NC(=O)[C@H](CCN)NC(=O)[C@H](CC2CCCCC2)NC(=O)[C@H](CNC(=O)[C@@H](N)[C@@H](C)O)NC(=O)[C@H](Cc2c[nH]c3ccccc23)NC(=O)[C@@H]2CCCN2C(=O)[C@H]2CCCN2C(=O)[C@H](CO)NC1=O [compound 14] (cyclo(W[Dap](Thr)[Cha][Dab][Orn][dDab][Dab]W[Dab][Tle]AS[dP]P)) | 0
3 | CC(=O)N[C@H](C(=O)NC[C@@H]1NC(=O)[C@H](Cc2c[nH]c3ccccc23)NC(=O)[C@@H]2CCCN2C(=O)[C@H]2CCCN2C(=O)[C@H](CO)NC(=O)[C@H](C)NC(=O)[C@H](C(C)(C)C)NC(=O)[C@H](CCN)NC(=O)[C@H](Cc2c[nH]c3ccccc23)NC(=O)[C@H](CCN)NC(=O)[C@@H](CCN)NC(=O)[C@H](CCCN)NC(=O)[C@H](CCN)NC(=O)[C@H](CC2CCCCC2)NC1=O)[C@@H](C)O [compound 15] (cyclo(W[Dap]([Thr-Ac])[Cha][Dab][Orn][dDab][Dab]W[Dab][Tle]AS[dP]P)) | 1
4 | C[C@@H]1NC(=O)[C@H](C(C)(C)C)NC(=O)[C@H](CCN)NC(=O)[C@H](Cc2c[nH]c3ccccc23)NC(=O)[C@H](CCN)NC(=O)[C@@H](CCN)NC(=O)[C@H](CCCN)NC(=O)[C@H](CCN)NC(=O)[C@H](CC2CCCCC2)NC(=O)[C@H](CNC(=O)NCc2cccnc2)NC(=O)[C@H](Cc2c[nH]c3ccccc23)NC(=O)[C@@H]2CCCN2C(=O)[C@H]2CCCN2C(=O)[C@H](CO)NC1=O [compound 16] (cyclo(W[Dap]([CO-NH(3-picolyl)])[Cha][Dab][Orn][dDab][Dab]W[Dab][Tle]AS[dP]P)) | 7
5 | CC(C)NC(=O)NC[C@@H]1NC(=O)[C@H](Cc2c[nH]c3ccccc23)NC(=O)[C@@H]2CCCN2C(=O)[C@H]2CCCN2C(=O)[C@H](CO)NC(=O)[C@H](C)NC(=O)[C@H](C(C)(C)C)NC(=O)[C@H](CCN)NC(=O)[C@H](Cc2c[nH]c3ccccc23)NC(=O)[C@H](CCN)NC(=O)[C@@H](CCN)NC(=O)[C@H](CCCN)NC(=O)[C@H](CCN)NC(=O)[C@H](CC2CCCCC2)NC1=O [compound 17] (cyclo(W[Dap]([CO-NHiPr])[Cha][Dab][Orn][dDab][Dab]W[Dab][Tle]AS[dP]P)) | 6
6 | C[C@@H]1NC(=O)[C@H](C(C)(C)C)NC(=O)[C@H](CCN)NC(=O)[C@H](Cc2c[nH]c3ccccc23)NC(=O)[C@H](CCN)NC(=O)[C@@H](CCN)NC(=O)[C@H](CCCN)NC(=O)[C@H](CCN)NC(=O)[C@H](CC2CCCCC2)NC(=O)[C@H](CCO)NC(=O)[C@H](Cc2c[nH]c3ccccc23)NC(=O)[C@@H]2CCCN2C(=O)[C@H]2CCCN2C(=O)[C@H](CO)NC1=O [compound 18] (cyclo(W[hSer][Cha][Dab][Orn][dDab][Dab]W[Dab][Tle]AS[dP]P)) | 3
7 | C[C@@H]1NC(=O)[C@H](C(C)(C)C)NC(=O)[C@H](CCN)NC(=O)[C@H](Cc2c[nH]c3ccccc23)NC(=O)[C@H](CCN)NC(=O)[C@@H](CN)NC(=O)[C@H](CCCN)NC(=O)[C@H](CCN)NC(=O)[C@H](CC2CCCCC2)NC(=O)[C@H](CO)NC(=O)[C@H](Cc2c[nH]c3ccccc23)NC(=O)[C@@H]2CCCN2C(=O)[C@H]2CCCN2C(=O)[C@H](CO)NC1=O [compound 19] (cyclo(WS[Cha][Dab][Orn][dDap][Dab]W[Dab][Tle]AS[dP]P)) | 3
8 | CC(C)NC(=O)NC[C@@H]1NC(=O)[C@H](C)NC(=O)[C@H](C(C)(C)C)NC(=O)[C@H](CCN)NC(=O)[C@H](Cc2c[nH]c3ccccc23)NC(=O)[C@H](CCN)NC(=O)[C@@H](CCN)NC(=O)[C@H](CCCN)NC(=O)[C@H](CCN)NC(=O)[C@H](CC2CCCCC2)NC(=O)[C@H](C)NC(=O)[C@H](Cc2c[nH]c3ccccc23)NC(=O)[C@@H]2CCCN2C(=O)[C@H]2CCCN2C1=O [compound 20] (cyclo(WA[Cha][Dab][Orn][dDab][Dab]W[Dab][Tle]A[Dap]([CO-NHiPr])[dP]P)) | 4
9 | C[C@@H]1NC(=O)[C@H](C(C)(C)C)NC(=O)[C@H](CCN)NC(=O)[C@H](Cc2c[nH]c3ccccc23)NC(=O)[C@H](CCN)NC(=O)[C@@H](CCN)NC(=O)[C@H](CCCN)NC(=O)[C@H](CCN)NC(=O)[C@H](Cc2ccc(O)cc2)NC(=O)[C@H](CO)NC(=O)[C@H](Cc2ccc(O)cc2)NC(=O)[C@@H]2CCCN2C(=O)[C@H]2CCCN2C(=O)[C@H](CO)NC1=O [compound 21] (cyclo(YSY[Dab][Orn][dDab][Dab]W[Dab][Tle]AS[dP]P)) | 1
10 | C[C@@H]1NC(=O)[C@H](C(C)(C)C)NC(=O)[C@H](CCN)NC(=O)[C@H](Cc2c[nH]c3ccccc23)NC(=O)[C@H](CCN)NC(=O)[C@@H](CCN)NC(=O)[C@H](CCCN)NC(=O)[C@H](CCN)NC(=O)[C@H](CC2CCCCC2)NC(=O)[C@H](CO)NC(=O)[C@H](Cc2cscn2)NC(=O)[C@@H]2CCCN2C(=O)[C@H]2CCCN2C(=O)[C@H](CO)NC1=O [compound 22] (cyclo([Ala(4-thiazolyl)]S[Cha][Dab][Orn][dDab][Dab]W[Dab][Tle]AS[dP]P)) | 0
11 | C[C@@H]1NC(=O)[C@H](Cc2c[nH]c3ccccc23)NC(=O)[C@@H]2CCCN2C(=O)[C@H]2CCCN2C(=O)[C@H](CO)NC(=O)[C@H](CNC(=N)N)NC(=O)[C@H](C(C)(C)C)NC(=O)[C@H](CCN)NC(=O)[C@H](Cc2c[nH]c3ccccc23)NC(=O)[C@H](CCN)NC(=O)[C@@H](CCN)NC(=O)[C@H](CCCN)NC(=O)[C@H](CCN)NC(=O)[C@H](CC2CCCCC2)NC1=O [compound 23] (cyclo(WA[Cha][Dab][Orn][dDab][Dab]W[Dab][Tle][Agp]S[dP]P)) | 1.7
12 | CC(C)C[C@@H]1NC(=O)[C@@H]2CCCN2C(=O)[C@H]2CCCN2C(=O)[C@H](CO)NC(=O)[C@H](C)NC(=O)[C@H](C(C)(C)C)NC(=O)[C@H](CCN)NC(=O)[C@H](Cc2c[nH]c3ccccc23)NC(=O)[C@H](CCN)NC(=O)[C@H](CCN)NC(=O)[C@H](CCCN)NC(=O)[C@H](CCN)NC(=O)[C@H](Cc2ccc(O)cc2)NC(=O)[C@H](CO)NC1=O [compound 24] (cyclo(LSY[Dab][Orn][Dab][Dab]W[Dab][Tle]AS[dP]P)) | 1
13 | CC(C)C[C@@H]1NC(=O)[C@@H]2CCCN2C(=O)[C@H]2CCCN2C(=O)[C@H](CO)NC(=O)[C@H](C)NC(=O)[C@H](C(C)(C)C)NC(=O)[C@H](CCN)NC(=O)[C@H](Cc2c[nH]c3ccccc23)NC(=O)[C@H](CCN)NC(=O)[C@@H](CCN)NC(=O)[C@H](CCCCN)NC(=O)[C@H](CCN)NC(=O)[C@H](Cc2ccc(O)cc2)NC(=O)[C@H](CO)NC1=O [compound 25] (cyclo(LSY[Dab]K[dDab][Dab]W[Dab][Tle]AS[dP]P)) | 1
14 | CC(C)C[C@@H]1NC(=O)[C@@H]2CCCN2C(=O)[C@H]2CCCN2C(=O)[C@H](CO)NC(=O)[C@H](C)NC(=O)[C@H](C(C)(C)C)NC(=O)[C@H](CCN)NC(=O)[C@H](Cc2c[nH]c3ccccc23)NC(=O)[C@H](CCN)NC(=O)[C@H](CCN)NC(=O)[C@H](CCCCN)NC(=O)[C@H](CCN)NC(=O)[C@H](Cc2ccc(O)cc2)NC(=O)[C@H](CO)NC1=O [compound 26] (cyclo(LSY[Dab]K[Dab][Dab]W[Dab][Tle]AS[dP]P)) | 1
15 | COc1ccc(C[C@@H]2NC(=O)[C@H](CO)NC(=O)[C@H](CC(C)C)NC(=O)[C@@H]3CCCN3C(=O)[C@H]3CCCN3C(=O)[C@H](CO)NC(=O)[C@H](C)NC(=O)[C@H](C(C)(C)C)NC(=O)[C@H](CCN)NC(=O)[C@H](Cc3c[nH]c4ccccc34)NC(=O)[C@H](CCN)NC(=O)[C@@H](CCN)NC(=O)[C@H](CCCN)NC(=O)[C@H](CCN)NC2=O)cc1 [compound 27] (cyclo(LSY(Me)[Dab][Orn][dDab][Dab]W[Dab][Tle]AS[dP]P)) | 1
16 | CC(C)C[C@@H]1NC(=O)[C@@H]2CCCN2C(=O)[C@H]2CCCN2C(=O)[C@H](CO)NC(=O)[C@H](C)NC(=O)[C@H](C(C)(C)C)NC(=O)[C@H](CCN)NC(=O)[C@H](Cc2c[nH]c3ccccc23)NC(=O)[C@H](CCN)NC(=O)[C@@H](CCN)NC(=O)[C@H](CCCN)NC(=O)[C@H](CCN)NC(=O)[C@H](Cc2ccccc2)NC(=O)[C@H](CO)NC1=O [compound 28] (cyclo(LSF[Dab][Orn][dDab][Dab]W[Dab][Tle]AS[dP]P)) | 2
17 | CC(C)C[C@@H]1NC(=O)[C@@H]2CCCN2C(=O)[C@H]2CCCN2C(=O)[C@H](CO)NC(=O)[C@H](C)NC(=O)[C@H](C2CCCCC2)NC(=O)[C@H](CCN)NC(=O)[C@H](Cc2c[nH]c3ccccc23)NC(=O)[C@H](CCN)NC(=O)[C@@H](CCN)NC(=O)[C@H](CCCN)NC(=O)[C@H](CCN)NC(=O)[C@H](Cc2ccc(O)cc2)NC(=O)[C@H](CO)NC1=O [compound 29] (cyclo(LSY[Dab][Orn][dDab][Dab]W[Dab][Chg]AS[dP]P)) | 6
